We go through 9 compounds from patent publication US12661410B2, “Compounds for targeted degradation of RET” (C4 Therapeutics, Inc., priority 2020, dated 2026).

One test has as its target T1, RET(KD: 658-1114 G810R) (Homo sapiens, UniProt P07949, G810R).
T1 construct: 658-1114; expressed in transfected cells; host or cells: 293T.165 (293T cells, generated in-house)
T1 sequence (P07949 658-1114 G810R): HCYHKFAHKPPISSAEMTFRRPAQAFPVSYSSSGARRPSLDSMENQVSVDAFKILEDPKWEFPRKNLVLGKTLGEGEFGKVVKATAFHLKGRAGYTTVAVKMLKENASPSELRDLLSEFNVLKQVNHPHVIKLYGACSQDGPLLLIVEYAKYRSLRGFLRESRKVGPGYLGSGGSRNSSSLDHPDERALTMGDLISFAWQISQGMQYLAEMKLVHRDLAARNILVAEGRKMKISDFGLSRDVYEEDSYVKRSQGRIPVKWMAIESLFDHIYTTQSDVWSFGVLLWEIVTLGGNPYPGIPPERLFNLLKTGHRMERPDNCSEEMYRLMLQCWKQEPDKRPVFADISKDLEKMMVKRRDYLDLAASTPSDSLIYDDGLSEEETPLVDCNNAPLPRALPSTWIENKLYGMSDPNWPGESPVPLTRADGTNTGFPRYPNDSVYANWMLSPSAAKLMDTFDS
Briefly: HiBiT-Degradation, RET G810R degradation assay (Nano-Glo HiBiT Lytic), 293T.165 cells. It is filed as cell-based. Particulars: for Emax / DC50: 6.0 hours; for Emax: % remaining protein, read-out: 293T.165 RET(KD: 658-1114 G810R) 6.0 hours (Emax); for DC50: read-out: 293T.165 RET(KD: 658-1114 G810R) 6.0 hours (DC50). The procedure, abridged:
(§1)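 HEK293T lines stably expressing HiBiT-tagged RET kinase domain (WT: 293T.144; G810R: 293T.165) were treated with degraders for 6 h in duplicate, 11-point half-log series from 10 μM top dose. Lysis with Nano-Glo HiBiT Lytic reagent, luminescence read; DC50 and Emax (% remaining protein) derived from dose-response curves.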
In general terms: HiBiT is a short tag that completes a luciferase, so light tracks the accessible tagged protein.

The next test has as its target T2, RET (658-1114) (Homo sapiens, UniProt P07949).
T2 construct: 658-1114; expressed in transfected cells; host or cells: 293T.144 (293T cells, generated in-house)
T2 sequence (P07949 658-1114): T1 sequence (P07949 658-1114 G810R) with R153G
Briefly: HiBiT-Degradation, RET wild-type degradation assay (Nano-Glo HiBiT Lytic), 293T.144 cells. The test is classed as cell-based. Particulars: for Emax / DC50: 6.0 hours; for Emax: read-out: 293T.144 RET (658-1114) 6.0 hours (Emax); for DC50: read-out: 293T.144 RET (658-1114) 6.0 hours (DC50). The gist of the method: as §1

The mark [1] stands for this setting: half-maximal degradation concentration.

Substitutions are numbered along the chain they refer to. Read-outs that look alike come from different tables or passages of the source.

A word on the Emax: it is the greatest response seen or fitted, relative to the assay's reference. The term DC50 denotes the midpoint of the concentration-degradation curve. For `CCC1(C(=O)NC(C)(C)C)CCN(c2ccc(-c3nc(-c4cnn([C@H]5CC[C@H](N6CCN(c7c(F)cc(N[C@@H]8CCC(=O)NC8=O)cc7F)CC6)CC5)c4)cn4ncc(C#N)c34)cn2)CC1` (racemic) [Compound 219, N-tert-butyl-1-[5-[3-cyano-6-[1-[4-[4-[2,6-difluoro-4-[[rac-(3R)-2,6-dioxo-3-piperidyl]amino]phenyl]piperazin-1-yl]cyclohexyl]pyrazol-4-yl]pyrazolo[1,5-a]pyrazin-4-yl]-2-pyridyl]-4-ethyl-piperidine-4-carboxamide], the “293T.165 RET(KD: 658-1114 G810R) 6.0 hours (IP) [nM]” value on RET(KD: 658-1114 G810R) is “+++ (<100 nM = +++)”. The Emax at RET(KD: 658-1114 G810R) and on RET (658-1114) (% remaining protein) was less than 30% in each case. Further, the DC50 at RET(KD: 658-1114 G810R) (setting [1]) and at RET (658-1114) (setting [1]) was less than 50 nM each time. Also, the “293T.144 RET (658-1114) 6.0 hours (IP) [nM]” value (“293T.144 RET” for short) at RET (658-1114) is “++++ (<50 nM = ++++)”.
As for `CC(C)(C)NC(=O)C1(C)CCN(c2ccc(-c3cc(-c4ccc(N5CCN(C(=O)CN6CCC(c7ccc(NC8CCC(=O)NC8=O)cc7F)CC6)CC5)cc4)cn4ncc(C#N)c34)cn2)CC1` (stereo not drawn) [Compound 25, N-(tert-butyl)-1-(5-(3-cyano-6-(4-(4-(2-(4-(4-((2,6-dioxopiperidin-3-yl)amino)-2-fluorophenyl)piperidin-1-yl)acetyl)piperazin-1-yl)phenyl)pyrazolo[1,5-a]pyridin-4-yl)pyridin-2-yl)-4-methylpiperidine-4-carboxamide], at RET(KD: 658-1114 G810R), the Emax is less than 50%. Further, the DC50 at RET(KD: 658-1114 G810R) (setting [1]) was less than 100 nM. Besides, on RET(KD: 658-1114 G810R) (HiBiT-Degradation), the “293T.165 RET(KD: 658-1114 G810R) 6.0 hours (Emax)” value is recorded as “+++ (<50% = +++)”, the “293T.165 RET(KD: 658-1114 G810R) 6.0 hours (IP) [nM]” value is “++++ (< 50 nM = ++++)” and the DC50 is less than 100 nM. At RET (658-1114) (HiBiT-Degradation), the “293T.144 RET” value is recorded as “++++ (< 50 nM = ++++)”, the DC50 is less than 50 nM and the Emax was less than 30%.
Consider `COc1ccc(CC2(O)CCN(c3ccc(-c4nc(-c5cnn([C@H]6CC[C@H](N7CCN(c8cc(OC)c(NC9CCC(=O)NC9=O)cc8F)CC7)CC6)c5)cn5ncc(C#N)c45)cn3)CC2)nc1` (stereo partly drawn) [Compound 215, 6-[1-[4-[4-[4-[(2,6-dioxo-3-piperidyl)amino]-2-fluoro-5-methoxy-phenyl]piperazin-1-yl]cyclohexyl]pyrazol-4-yl]-4-[6-[4-hydroxy-4-[(5-methoxy-2-pyridyl)methyl]-1-piperidyl]-3-pyridyl]pyrazolo[1,5-a]pyrazine-3-carbonitrile], for which, on RET(KD: 658-1114 G810R), the “293T.165 RET(KD: 658-1114 G810R) 6.0 hours (IP) [nM]” value is recorded as “++++ (<50 nM = ++++)”. Besides, the Emax at RET(KD: 658-1114 G810R) and on RET (658-1114) (% remaining protein) was less than 30% in each case. In addition, the DC50 on RET(KD: 658-1114 G810R) (setting [1]) and on RET (658-1114) (setting [1]) was less than 50 nM in each case. Further, the “293T.144 RET” value at RET (658-1114) was “++++ (<50 nM = ++++)”.
With `CCC1(C(=O)NC2CCC2)CCN(c2ccc(-c3nc(-c4cnn([C@H]5CC[C@H](CN6CCN(c7ccc(N[C@@H]8CCC(=O)NC8=O)cc7F)CC6)CC5)c4)cn4ncc(C#N)c34)cn2)CC1` [Compound 190, 1-[5-[3-cyano-6-[1-[4-[[4-[4-[[(3R)-2,6-dioxo-3-piperidyl]amino]-2-fluoro-phenyl]piperazin-1-yl]methyl]cyclohexyl]pyrazol-4-yl]pyrazolo[1,5-a]pyrazin-4-yl]-2-pyridyl]-N-cyclobutyl-4-ethyl-piperidine-4-carboxamide], the “293T.165 RET(KD: 658-1114 G810R) 6.0 hours (IP) [nM]” value at RET(KD: 658-1114 G810R) is on record as “++++ (<50 nM = ++++)”. In addition, the Emax on RET(KD: 658-1114 G810R) and at RET (658-1114) (% remaining protein) was less than 30% in each case. Further, the values for the DC50 at RET(KD: 658-1114 G810R) (setting [1]) and at RET (658-1114) (setting [1]) were less than 100 nM and less than 50 nM, respectively. The “293T.144 RET” value at RET (658-1114) is “++++ (<50 nM = ++++)”.
For `CCC1(C(=O)NC(C)C)CCN(c2ccc(-c3nc(-c4cnn(C5CCN(C(=O)CC6(O)CCN(c7ccc(NC8CCC(=O)NC8=O)cc7Br)CC6)CC5)c4)cn4ncc(C#N)c34)cn2)CC1` (stereo not drawn) [Compound 95, 1-[5-[6-[1-[1-[2-[1-[2-bromo-4-[(2,6-dioxo-3-piperidyl)amino]phenyl]-4-hydroxy-4-piperidyl]acetyl]-4-piperidyl]pyrazol-4-yl]-3-cyano-pyrazolo[1,5-a]pyrazin-4-yl]-2-pyridyl]-4-ethyl-N-isopropyl-piperidine-4-carboxamide], the “293T.165 RET(KD: 658-1114 G810R) 6.0 hours (IP) [nM]” value at RET(KD: 658-1114 G810R) is listed as “++++ (<50 nM = ++++)”. In addition, the Emax at RET(KD: 658-1114 G810R) and at RET (658-1114) (% remaining protein) was less than 30% each time. In addition, the DC50 on RET(KD: 658-1114 G810R) (setting [1]) and at RET (658-1114) (setting [1]) was less than 50 nM throughout. Besides, the “293T.144 RET” value on RET (658-1114) is given as “++++ (<50 nM = ++++)”.
Regarding `N#Cc1cnn2cc(-c3cnn(C4CCN(C(=O)CN5CCC(c6ccc(NC7CCC(=O)NC7=O)cc6F)CC5)CC4)c3)nc(-c3ccc(N4CCN(Cc5ccccn5)CC4)cc3)c12` (stereo not drawn) [Compound 61, 6-[1-[1-[2-[4-[4-[(2,6-dioxo-3-piperidyl)amino]-2-fluoro-phenyl]-1-piperidyl]acetyl]-4-piperidyl]pyrazol-4-yl]-4-[4-[4-(2-pyridylmethyl)piperazin-1-yl]phenyl]pyrazolo[1,5-a]pyrazine-3-carbonitrile], the Emax at RET(KD: 658-1114 G810R) is less than 50%. For the same compound, the DC50 on RET(KD: 658-1114 G810R) (setting [1]) is less than 100 nM. Besides, at RET(KD: 658-1114 G810R) (HiBiT-Degradation), the “293T.165 RET(KD: 658-1114 G810R) 6.0 hours (Emax)” value is “+++ (<50% = +++)”, the “293T.165 RET(KD: 658-1114 G810R) 6.0 hours (IP) [nM]” value is recorded as “++++ (< 50 nM = ++++)” and the DC50 is less than 100 nM. Also, on RET (658-1114) (HiBiT-Degradation), the “293T.144 RET” value is “++++ (< 50 nM = ++++)”, the DC50 was less than 50 nM and the Emax is less than 30%.
Turning to `CCC1(C(=O)NC2CCC2)CCN(c2ccc(-c3nc(-c4cnn([C@H]5CC[C@H](N6CCC(c7ccc(N[C@@H]8CCC(=O)NC8=O)cc7)CC6)CC5)c4)cn4ncc(C#N)c34)cn2)CC1` (single isomer, unassigned) [Compound 128], the “293T.165 RET(KD: 658-1114 G810R) 6.0 hours (IP) [nM]” value at RET(KD: 658-1114 G810R) is reported as “++++ (<50 nM = ++++)”. In addition, the Emax at RET(KD: 658-1114 G810R) and on RET (658-1114) (% remaining protein) was less than 30% in each case. Further, the DC50 on RET(KD: 658-1114 G810R) (setting [1]) and on RET (658-1114) (setting [1]) was less than 50 nM in each case. For the same compound, the “293T.144 RET” value at RET (658-1114) is “++++ (<50 nM = ++++)”.
Consider `COc1ccc(CN2C3COCC2CN(c2ccc(-c4nc(-c5cnn([C@H]6CC[C@H](N7CCN(c8cc(F)c(NC9CCC(=O)NC9=O)cc8F)CC7)CC6)c5)cn5ncc(C#N)c45)cn2)C3)cn1` (relative stereo) [Compound 162, 6-[1-[4-[4-[4-[(2,6-dioxo-3-piperidyl)amino]-2,5-difluoro-phenyl]piperazin-1-yl]cyclohexyl]pyrazol-4-yl]-4-[6-[9-[(6-methoxy-3-pyridyl)methyl]-3-oxa-7,9-diazabicyclo[3.3.1]nonan-7-yl]-3-pyridyl]pyrazolo[1,5-a]pyrazine-3-carbonitrile], for which, on RET(KD: 658-1114 G810R), the “293T.165 RET(KD: 658-1114 G810R) 6.0 hours (IP) [nM]” value is “++++ (<50 nM = ++++)”. Also, the Emax at RET(KD: 658-1114 G810R) and on RET (658-1114) (% remaining protein) was less than 30% throughout. Further, the DC50 on RET(KD: 658-1114 G810R) (setting [1]) was less than 100 nM; at RET (658-1114) (setting [1]), less than 50 nM. Further, on RET (658-1114), the “293T.144 RET” value is reported as “++++ (<50 nM = ++++)”.
In the case of `N#Cc1cnn2cc(-c3ccc(N4CCN(C(=O)CN5CCC(c6ccc(NC7CCC(=O)NC7=O)cc6)CC5)CC4)cc3)cc(-c3ccc(N4CCN(CCc5ccccn5)CC4)nc3)c12` (stereo not drawn) [Compound 18, 6-(4-(4-(2-(4-(4-((2,6-Dioxopiperidin-3-yl)amino)phenyl)piperidin-1-yl)acetyl)piperazin-1-yl)phenyl)-4-(6-(4-(2-(pyridin-2-yl)ethyl)piperazin-1-yl)pyridin-3-yl)pyrazolo[1,5-a]pyridine-3-carbonitrile], the Emax on RET(KD: 658-1114 G810R) is less than 30%. Besides, at RET(KD: 658-1114 G810R) (setting [1]), the DC50 was less than 100 nM. On RET(KD: 658-1114 G810R) (HiBiT-Degradation), the “293T.165 RET(KD: 658-1114 G810R) 6.0 hours (Emax)” value was “++++ (< 30% = ++++)”, the “293T.165 RET(KD: 658-1114 G810R) 6.0 hours (IP) [nM]” value was “++++ (< 50 nM = ++++)” and the DC50 was less than 100 nM. At RET (658-1114) (HiBiT-Degradation), the “293T.144 RET” value is listed as “++++ (< 50 nM = ++++)”, the DC50 is less than 50 nM and the Emax was less than 30%.
